The values below come from patent US20030186967A1, “Acylresorcinol derivatives are selective vitronectin receptor inhibitors” (American Home Products Corporation, priority 1998, published 2003).

Where a name gives a salt, the structure may show the parent alone.

The assay concerns the target T1, Vitronectin receptor αVβ3 (Homo sapiens, UniProt P05106+P06756).
T1 construct: expressed in transfected cells; host or cells: 512P5 cells (plasma membrane preparation)
Briefly: Vitronectin Receptor αVβ3 Binding Assay. The settings on record: read-out: VnR (IC50μM).

T1 sequence (P06756 31-889 limits assumed): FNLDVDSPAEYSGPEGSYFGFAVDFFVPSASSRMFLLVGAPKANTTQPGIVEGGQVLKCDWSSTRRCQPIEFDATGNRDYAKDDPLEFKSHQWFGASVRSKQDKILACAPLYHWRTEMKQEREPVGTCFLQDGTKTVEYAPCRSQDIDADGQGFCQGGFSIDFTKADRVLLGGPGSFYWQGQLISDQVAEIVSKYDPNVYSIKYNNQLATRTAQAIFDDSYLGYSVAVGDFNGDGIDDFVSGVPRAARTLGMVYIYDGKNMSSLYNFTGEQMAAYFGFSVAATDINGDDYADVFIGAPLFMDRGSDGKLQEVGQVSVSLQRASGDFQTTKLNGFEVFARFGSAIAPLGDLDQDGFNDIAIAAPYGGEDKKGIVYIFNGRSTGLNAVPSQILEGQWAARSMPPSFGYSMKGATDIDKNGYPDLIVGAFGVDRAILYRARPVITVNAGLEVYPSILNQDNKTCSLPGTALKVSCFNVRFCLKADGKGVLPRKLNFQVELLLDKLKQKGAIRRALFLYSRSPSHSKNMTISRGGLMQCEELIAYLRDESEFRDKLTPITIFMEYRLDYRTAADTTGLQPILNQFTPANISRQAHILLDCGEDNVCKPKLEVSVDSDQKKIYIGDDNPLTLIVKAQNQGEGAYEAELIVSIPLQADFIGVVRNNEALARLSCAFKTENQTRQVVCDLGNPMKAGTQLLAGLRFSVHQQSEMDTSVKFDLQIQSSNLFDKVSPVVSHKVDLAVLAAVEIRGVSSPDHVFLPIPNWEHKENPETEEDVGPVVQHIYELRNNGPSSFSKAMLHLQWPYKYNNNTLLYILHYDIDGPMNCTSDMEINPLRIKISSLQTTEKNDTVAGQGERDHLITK
T1 sequence (P06756 891-1048 partner limits assumed): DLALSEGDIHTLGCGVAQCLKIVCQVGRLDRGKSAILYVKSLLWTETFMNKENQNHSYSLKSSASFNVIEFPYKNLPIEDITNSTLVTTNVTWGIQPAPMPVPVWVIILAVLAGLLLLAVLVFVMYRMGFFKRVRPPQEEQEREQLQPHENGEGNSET
T1 sequence (P05106 27-788): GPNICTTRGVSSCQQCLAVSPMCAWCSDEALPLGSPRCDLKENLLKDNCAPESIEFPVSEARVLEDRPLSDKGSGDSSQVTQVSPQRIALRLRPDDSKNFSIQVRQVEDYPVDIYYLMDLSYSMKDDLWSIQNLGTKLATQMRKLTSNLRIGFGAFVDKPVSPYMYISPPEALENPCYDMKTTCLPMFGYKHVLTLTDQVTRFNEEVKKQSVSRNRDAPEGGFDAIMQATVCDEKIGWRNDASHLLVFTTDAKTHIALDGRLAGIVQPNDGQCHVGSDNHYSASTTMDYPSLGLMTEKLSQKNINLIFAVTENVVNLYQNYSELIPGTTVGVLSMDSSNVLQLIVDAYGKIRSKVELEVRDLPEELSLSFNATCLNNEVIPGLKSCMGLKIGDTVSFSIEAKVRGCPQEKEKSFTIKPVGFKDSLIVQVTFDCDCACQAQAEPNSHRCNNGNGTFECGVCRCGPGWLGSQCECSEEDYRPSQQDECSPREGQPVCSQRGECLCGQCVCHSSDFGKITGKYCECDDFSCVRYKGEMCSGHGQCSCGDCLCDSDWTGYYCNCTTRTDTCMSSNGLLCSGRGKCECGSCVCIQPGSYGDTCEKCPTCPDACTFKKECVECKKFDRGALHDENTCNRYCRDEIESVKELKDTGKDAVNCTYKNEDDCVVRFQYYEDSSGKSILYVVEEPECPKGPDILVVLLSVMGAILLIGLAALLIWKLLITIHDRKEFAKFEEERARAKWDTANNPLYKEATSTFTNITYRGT

As to `C=CCCOC(=O)N[C@@H](CNC(=O)c1ccc(OCCNC2=NCCN2)cc1O)C(=O)O` [Example 102, (2S)-2-{[(but-3-enyloxy)carbonyl]amino}-3-({4-[2-(4,5-dihydro-1H-imidazol-2-ylamino)ethoxy]-2-hydroxybenzoyl}amino)propanoic acid], the IC50 is 0.069 µM. The value for `O=C(O)CC(NC(=O)c1ccc(OCCNc2ncccn2)cc1O)c1ccccc1` (stereo not shown) [Example 287, 3-[2-hydroxy-4-[2-(pyrimidin-2-ylamino)-ethoxy]benzoyl-amino]-3-phenyl-propanoic acid hydrochloride] was 0.26 µM; that for `CCCC(=O)N[C@@H](CNC(=O)c1ccc(OCCNC2=NCCN2)cc1O)C(=O)O` [Example 119, (2S)-2-(butyrylamino)-3-({4-[2-(4,5-dihydro-1H-imidazol-2-ylamino)ethoxy]-2-hydroxybenzoyl}amino)propanoic acid] was greater than 1 µM.

As for `CCCOC(=O)N[C@@H](CNC(=O)c1ccc(OCCNC2=NCCCN2)cc1O)C(=O)O` [Example 4, (2S)-3-({2-hydroxy-4-[2-(1,4,5,6-tetrahydropyrimidin-2-ylamino)ethoxy]benzoyl}-amino)-2-[(propoxycarbonyl)amino]propanoic acid], the IC50 amounted to 0.095 µM. With `O=C(N[C@@H](CNC(=O)c1ccc(OCCNC2=NCCCCC2)cc1O)C(=O)O)OCc1ccccc1` [Example 143, (2S)-2-{[(benzyloxy)carbonyl]amino}-3-({2-hydroxy-4-[2-(3,4,5,6-tetrahydro-2-azepin-7-ylamino)ethoxy]benzoyl}amino)propanoic acid], the IC50 came out at 4.79 µM.

In the case of `O=C(Nc1ccccc1Br)N[C@@H](CNC(=O)c1ccc(OCCNc2ncccn2)cc1O)C(=O)O` [Example 81, (2S)-2-{[(2-bromoanilino)carbonyl]amino}-3-({2-hydroxy-4-[2-(pyrimidin-2-ylamino)ethoxy]benzoyl}amino)propanoic acid], the IC50 is greater than 1 µM. The value for `COC(=O)N[C@@H](CNC(=O)c1ccc(OCCNC(=O)NCc2ccccc2)cc1O)C(=O)O` [Example 221, (2S)-3-{[4-(2-{[(benzylamino)carbonyl]amino}ethoxy)-2-hydroxybenzoyl]amino}-2-[(methoxycarbonyl)amino]propanoic acid] was 22.8 µM; that for `O=C(Nc1ccc(Cl)cc1)N[C@@H](CNC(=O)c1ccc(OCCNC2=NCCCN2)cc1O)C(=O)O` [Example 30, (2S)-2-{[(4-chloroanilino)carbonyl]amino}-3-({2-hydroxy-4-[2-(1,4,5,6-tetrahydropyrimidin-2-ylamino)ethoxy]benzoyl}amino)propanoic acid] was 1.27 µM. For `O=C(N[C@@H](CNC(=O)c1ccc(OCCNc2ncccn2)cc1O)C(=O)O)OCc1ccccc1` [Example 55, (2S)-2-{[(benzyloxy)carbonyl]amino}-3-({2-hydroxy-4-[2-(pyrimidin-2-ylamino)ethoxy]benzoyl}amino)propanoic acid], the IC50 is 101 µM. The value for `O=C(NCCOc1ccc(C(=O)NC[C@H](NC(=O)OCc2ccccc2)C(=O)O)c(O)c1)NCc1cccnc1` [Example 233] was 3.3 µM; that for `CC(C)(C)CC(=O)N[C@@H](CNC(=O)c1ccc(OCCNC2=NCCN2)cc1O)C(=O)O` [Example 122, (2S)-3-({4-[2-(4,5-dihydro-1H-imidazol-2-ylamino)ethoxy]-2-hydroxybenzoyl}-amino)-2-[(3,3-dimethylbutanoyl)amino]propanoic acid] was greater than 1 µM; that for `O=C(NCCc1ccccc1)N[C@@H](CNC(=O)c1ccc(OCCNc2ncccn2)cc1O)C(=O)O` [Example 93, (2S)-3-({2-hydroxy-4-[2-(pyrimidin-2-ylamino)ethoxy]benzoyl}amino)-2-({[(2phenylethyl)amino]carbonyl}amino)propanoic acid] was greater than 1 µM. The value for `CC(C)COC(=O)N[C@@H](CNC(=O)c1ccc(OCCNC(=O)NCc2cccnc2)cc1O)C(=O)O` [Example 246, (2S)-3-({2-hydroxy-4-[2-({[(pyridin-3-ylmethyl)amino]carbonyl}-amino)ethoxy]-benzoyl}amino)-2-[(isobutoxycarbonyl)amino]propanoic acid] was 1.6 µM; that for `CC(C)(C)COC(=O)N[C@@H](CNC(=O)c1ccc(OCCNC(=O)NCc2cccnc2)cc1O)C(=O)O` [Example 243, (2S)-3-({2-hydroxy-4-[2-({[(pyridin-3-ylmethyl)amino]carbonyl}-amino)ethoxy]-benzoyl}amino)-2-{[(neopentyloxy)carbonyl]amino}propanoic acid] was 0.69 µM; that for “(2S)-3-({2-hydroxy-4-[2-(pyrimidin-2-ylamino)ethoxy]benzoyl}amino)-2-{[1-naphthylamino)carbonyl]amino}propanoic acid [Example 91]” was greater than 1 µM. Next, `CC(C)COC(=O)N[C@@H](CNC(=O)c1ccc(OCCNC(=O)NCc2ccccc2)cc1O)C(=O)O` [Example 232, (2S)-3-{[4-(2-{[(benzylamino)carbonyl]amino}ethoxy)-2-hydroxybenzoyl]amino}-2-[(isobutoxycarbonyl)amino]propanoic acid]: 3.7 µM.

For `O=C(CC12CC3CC(CC(C3)C1)C2)N[C@@H](CNC(=O)c1ccc(OCCNC2=NCCN2)cc1O)C(=O)O` [Example 124, (2S)-2-{[2-(1-adamantyl)acetyl]amino}-3-({4-[2-(4,5-dihydro-1H-imidazol-2-ylamino)ethoxy]-2-hydroxybenzoyl}amino)propanoic acid], the IC50 worked out at 0.734 µM. The value for `CCCCOC(=O)N[C@@H](CNC(=O)c1ccc(OCCNC(=N)N)cc1O)C(=O)O` [Example 164, (2S)-3-{[4-(2-{[amino(imino)methyl]amino}ethoxy)-2-hydroxybenzoyl]amino}-2-[(butoxycarbonyl)amino]propanoic acid] was 0.61 µM. As for `CCCOC(=O)N[C@@H](CNC(=O)c1ccc(OCCNC2=NCCN2)cc1O)C(=O)O` [Example 99, (2S)-3-({4-[2-(4,5-dihydro-1H-imidazol-2-ylamino)ethoxy]-2-hydroxybenzoyl}-amino)-2-[(propoxycarbonyl)amino]propanoic acid], the IC50 is 0.088 µM. The value for `O=C(NC[C@H](NC(=O)c1ccccc1Cl)C(=O)O)c1ccc(OCCNC2=NCCN2)cc1O` [Example 131, (2S)-2-[(2-chlorobenzoyl)amino]-3-({4-[2-(4,5-dihydro-1H-imidazol-2-ylamino)ethoxy]-2-hydroxybenzoyl}amino)propanoic acid] was 0.405 µM. For the compound `CCCCNC(=O)N[C@@H](CNC(=O)c1ccc(OCCNc2ncccn2)cc1O)C(=O)O` [Example 73, (2S)-2-{[(butylamino)carbonyl]amino}-3-({2-hydroxy-4-[2-(pyrimidin-2-ylamino)ethoxy]benzoyl}amino)propanoic acid], the IC50 is greater than 1 µM. Next, `COC(=O)N[C@@H](CNC(=O)c1ccc(OCCNC2=NCCCN2)cc1O)C(=O)O` [Example 2, (2S)-3-({2-hydroxy-4-[2-(1,4,5,6-tetrahydropyrimidin-2-ylamino)ethoxy]benzoyl}-amino)-2-[(methoxycarbonyl)amino]propanoic acid]: 0.187 µM; `O=C(NCCOc1ccc(C(=O)NC[C@H](NC(=O)OCC(Cl)(Cl)Cl)C(=O)O)c(O)c1)NCc1ccncc1` [Example 258, (2S)-3-({2-hydroxy-4-[2-({[(pyridin-4-ylmethyl)amino]carbonyl}amino)-ethoxy]-benzoyl}amino)-2-{[(2,2,2-trichloroethoxy)carbonyl]amino}propanoic acid]: 4.31 µM; `COc1ccccc1C(=O)N[C@@H](CNC(=O)c1ccc(OCCNC2=NCCN2)cc1O)C(=O)O` [Example 133, (2S)-3-({4-[2-(4,5-dihydro-1H-imidazol-2-ylamino)ethoxy]-2-hydroxybenzoyl}-amino)-2-[(2-methoxybenzoyl)amino]propanoic acid]: greater than 1 µM. On to `O=C(Nc1ccccc1)N[C@@H](CNC(=O)c1ccc(OCCNc2ncccn2)cc1O)C(=O)O` [Example 71, (2S)-2-[(anilinocarbonyl)amino]-3-({2-hydroxy-4-[2-(pyrimidin-2-ylamino)ethoxy]-benzoyl}amino)propanoic acid], for which the IC50 is greater than 1 µM. The value for `CC(C)(C)NC(=O)N[C@@H](CNC(=O)c1ccc(OCCNc2ncccn2)cc1O)C(=O)O` [Example 72, (2S)-2-{[(tert-butylamino)carbonyl]amino}-3-({2-hydroxy-4-[2-(pyrimidin-2-ylamino)ethoxy]benzoyl}amino)propanoic acid] was greater than 1 µM.

As for `Cc1ccccc1CNC(=O)NCCOc1ccc(C(=O)NC[C@H](NC(=O)OCc2ccccc2)C(=O)O)c(O)c1` [Example 268], the IC50 was 33.4 µM. Turning to `CCCCCCOC(=O)N[C@@H](CNC(=O)c1ccc(OCCNC(=O)NCc2ccccc2)cc1O)C(=O)O` [Example 228, (2S)-3-{[4-(2-{[(benzylamino)carbonyl]amino}ethoxy)-2-hydroxybenzoyl]amino}-2-{[(hexyloxy)carbonyl]amino}propanoic acid], the IC50 was found to be 10.2 µM.

Turning to `CC(C)OC(=O)N[C@@H](CNC(=O)c1ccc(OCCNc2ncccn2)cc1O)C(=O)O` [Example 68, (2S)-3-({2-hydroxy-4-[2-(pyrimidin-2-ylamino)ethoxy]benzoyl}amino)-2-[(isopropoxycarbonyl)amino]propanoic acid], the IC50 came out at 100 µM. Next, `O=C(/C=C/c1ccccc1)N[C@@H](CNC(=O)c1ccc(OCCNC2=NCCN2)cc1O)C(=O)O` [Example 130, (2S)-3-({4-[2-(4,5-dihydro-1H-imidazol-2-ylamino)ethoxy]-2-hydroxybenzoyl}-amino)-2-{[(E)-3-phenylprop-2-enoyl]amino}propanoic acid]: greater than 1 µM.

As for `CC(C)(C)COC(=O)N[C@@H](CNC(=O)c1ccc(OCCNC(=O)NCc2ccccc2)cc1O)C(=O)O` [Example 219, (2S)-3-{[4-(2-{[(benzylamino)carbonyl]amino}ethoxy)-2-hydroxy-benzoyl]amino}-2-{[(neopentyloxy)carbonyl]amino}propanoic acid], the IC50 is 1.8 µM.
